What all share (conditions): banded MIC grade
The subject of assay [1] is A. fumigatus 210. As to the kind of experiment: Minimum inhibitory concentration, RPMI medium. In kind it is cell-based. The method in brief: (§1)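 Broth microdilution in RPMI 1640 (2% glucose, 0.135 M MOPS, pH 7.0) at 1-2×10^4 cfu/mL, testing 50-0.05 mg/L in doubling steps. After 24-48 hrs at 35° C, OD at 485 nm was read, and the MIC was taken as the lowest drug level suppressing growth by >80% relative to drug-free wells.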

Another assay has as its system A. fumigatus. Kind of assay: Minimum inhibitory concentration, RPMI medium. In kind it is cell-based. The method in brief:
as §1

Assay [2] relates to A. fumigatus 210. As to the kind of experiment: Minimum inhibitory concentration, YAG medium. The format is cell-based, Aspergillus fumigatus. The method in brief: (§2)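 MIC, in mg/L, defined as the lowest drug level inhibiting growth by >70% relative to drug-free wells, judged by OD 485 nm after 24 hrs at 35° C. Spores (1-2×10^4 cfu/mL) were grown in YAG medium against doubling dilutions, usually 50-0.05 mg/L, repeated at 0.5-0.0005 mg/L where needed.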

In assay [3] the test system is A. terreus 49. Kind of assay: Minimum inhibitory concentration, YAG medium. In kind it is cell-based, Aspergillus terreus. The method in brief: (§3)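 Twofold aqueous dilution series, prepared from a DMSO stock (5 mg/mL), were inoculated with Aspergillus spp. spores; incubation lasted 24 hrs at 35° C before OD 485 nm readings.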
Another assay has as its system Aspergillus niger. As to the kind of experiment: Minimum inhibitory concentration, YAG medium. In kind it is cell-based. The method in brief: as §3
For a further assay, the system named is Aspergillus flavus. As to the kind of experiment: Minimum inhibitory concentration, YAG medium. In kind it is cell-based. The essentials:
as §3

Another assay has as its system Aspergillus terreus. Kind of assay: Minimum inhibitory concentration, YAG medium. The format is cell-based. The method in brief:
as §3

For another assay, the system named is A. terreus. Kind of assay: Minimum inhibitory concentration, RPMI medium. The format is cell-based. The essentials:
(§4)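 Incubated at 35° C for 24-48 hrs in RPMI 1640 with twofold water dilutions of compound (from 5 mg/mL stock in DMSO); absorbance at 485 nm indicated growth.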

In a further assay the test system is A. flavus. Kind of assay: Minimum inhibitory concentration, RPMI medium. The format is cell-based. The method in brief: as §4
For assay [4], the system named is A. terreus 49. Kind of assay: Minimum inhibitory concentration, RPMI medium. The format is cell-based. The essentials:
as §4

A further assay deals with C. tropicalis. Kind of assay: Minimum inhibitory concentration, RPMI medium. In kind it is cell-based. The essentials: as §4
A further assay deals with A. niger. Kind of assay: Minimum inhibitory concentration, RPMI medium. The format is cell-based. The essentials:
as §4

A further assay has as its system C. glabrata. As to the kind of experiment: Minimum inhibitory concentration, RPMI medium. In kind it is cell-based. The essentials: as §4
A further assay deals with C. krusei. Kind of assay: Minimum inhibitory concentration, RPMI medium. The format is cell-based. The essentials:
as §4

The subject of the next assay is C. albicans. As to the kind of experiment: Minimum inhibitory concentration, RPMI medium. The format is cell-based. The essentials:
as §4

A further assay relates to C. parapsilosis. Kind of assay: Minimum inhibitory concentration, RPMI medium. The format is cell-based. The method in brief: as §4
The next assay relates to Aspergillus fumigatus. As to the kind of experiment: Minimum inhibitory concentration, YAG medium. In kind it is cell-based. The essentials:
as §2

Consider `CCc1ccc(OCCCCC2=NN=C(N)SC2)cc1`, for which the “MIC grade, A. FUMIGATUS 210, RPMI media” value against A. fumigatus 210 [1] was 2 (2: 5-20 mg/L). Besides, the “MIC grade, A. FUMIGATUS, RPMI media” value with A. fumigatus is on record as 2 (2: 5-20 mg/L). In the assay with A. fumigatus 210 [2], the “MIC grade, A. FUMIGATUS 210, YAG media” value is given as 3 (3: 0.2-1 mg/L). The “MIC grade, A. TERREUS 49, YAG media” value in the assay on A. terreus 49 [3] is on record as 4 (4: <0.2 mg/L). In addition, the “MIC grade, A. NIGER, YAG media” value in the assay on Aspergillus niger is listed as 3 (3: 0.2-1 mg/L). Also, the “MIC grade, A. FLAVUS, YAG media” value against Aspergillus flavus is given as 4 (4: <0.2 mg/L). The “MIC grade, A. TERREUS, YAG media” value with Aspergillus terreus is given as 4 (4: <0.2 mg/L). For the same compound, the “MIC grade, A. TERREUS, RPMI media” value against A. terreus is recorded as 3 (3: 1-5 mg/L). For the same compound, the “MIC grade, A. FLAVUS, RPMI media” value with A. flavus is 2 (2: 5-20 mg/L). Besides, in the assay with A. terreus 49 [4], the “MIC grade, A. TERREUS 49, RPMI media” value was 2 (2: 5-20 mg/L). Moreover, in the assay with C. tropicalis, the “MIC grade, C. TROPICALIS, RPMI media” value was 4 (4: <1 mg/L). In the assay with A. niger, the “MIC grade, A. NIGER, RPMI media” value is 2 (2: 5-20 mg/L). Also, the “MIC grade, C. GLABRATA, RPMI media” value against C. glabrata was 2 (2: 5-20 mg/L). Besides, the “MIC grade, C. KRUSEI, RPMI media” value in the assay on C. krusei was 4 (4: <1 mg/L). The “MIC grade, C. ALBICANS, RPMI media” value against C. albicans is on record as 4 (4: <1 mg/L). Besides, the “MIC grade, C. PARAPSILOSIS, RPMI media” value in the assay on C. parapsilosis is reported as 4 (4: <1 mg/L). In the assay with Aspergillus fumigatus, the “MIC grade, A. FUMIGATUS, YAG media” value is recorded as 3 (3: 0.2-1 mg/L).

Consider `NC1=NN=C(CCCCOCc2ccc(C(F)(F)F)cc2)CS1`, for which the “MIC grade, A. FUMIGATUS 210, RPMI media” value in the assay with A. fumigatus 210 [1] is recorded as 2 (2: 5-20 mg/L). For the same compound, the “MIC grade, A. FUMIGATUS, RPMI media” value in the assay with A. fumigatus is given as 2 (2: 5-20 mg/L). In the assay on A. fumigatus 210 [2], the “MIC grade, A. FUMIGATUS 210, YAG media” value is recorded as 4 (4: <0.2 mg/L). In addition, in the assay with A. terreus 49 [3], the “MIC grade, A. TERREUS 49, YAG media” value is listed as 4 (4: <0.2 mg/L). Besides, the “MIC grade, A. NIGER, YAG media” value in the assay with Aspergillus niger is 4 (4: <0.2 mg/L). In the assay on Aspergillus flavus, the “MIC grade, A. FLAVUS, YAG media” value is reported as 4 (4: <0.2 mg/L). In the assay on Aspergillus terreus, the “MIC grade, A. TERREUS, YAG media” value is 4 (4: <0.2 mg/L). In the assay on A. terreus, the “MIC grade, A. TERREUS, RPMI media” value was 3 (3: 1-5 mg/L). Moreover, the “MIC grade, A. FLAVUS, RPMI media” value against A. flavus is reported as 3 (3: 1-5 mg/L). Also, in the assay on A. terreus 49 [4], the “MIC grade, A. TERREUS 49, RPMI media” value was 2 (2: 5-20 mg/L). Further, the “MIC grade, C. TROPICALIS, RPMI media” value against C. tropicalis is recorded as 4 (4: <1 mg/L). In the assay on A. niger, the “MIC grade, A. NIGER, RPMI media” value is given as 3 (3: 1-5 mg/L). Moreover, the “MIC grade, C. GLABRATA, RPMI media” value in the assay on C. glabrata is listed as 2 (2: 5-20 mg/L). Besides, the “MIC grade, C. KRUSEI, RPMI media” value against C. krusei is recorded as 4 (4: <1 mg/L). Further, in the assay on C. albicans, the “MIC grade, C. ALBICANS, RPMI media” value is recorded as 4 (4: <1 mg/L). Besides, the “MIC grade, C. PARAPSILOSIS, RPMI media” value against C. parapsilosis is given as 4 (4: <1 mg/L). Further, in the assay with Aspergillus fumigatus, the “MIC grade, A. FUMIGATUS, YAG media” value is given as 4 (4: <0.2 mg/L).

Regarding `NC1=NN=C(CCCCOCc2ccc(Cl)cc2)CS1`, the “MIC grade, A. FUMIGATUS 210, RPMI media” value against A. fumigatus 210 [1] is 2 (2: 5-20 mg/L). Moreover, the “MIC grade, A. FUMIGATUS, RPMI media” value in the assay with A. fumigatus was 3 (3: 1-5 mg/L). Moreover, in the assay on A. fumigatus 210 [2], the “MIC grade, A. FUMIGATUS 210, YAG media” value is on record as 4 (4: <0.2 mg/L). Also, the “MIC grade, A. TERREUS 49, YAG media” value with A. terreus 49 [3] is given as 4 (4: <0.2 mg/L). In addition, the “MIC grade, A. NIGER, YAG media” value in the assay with Aspergillus niger is reported as 4 (4: <0.2 mg/L). Besides, in the assay with Aspergillus flavus, the “MIC grade, A. FLAVUS, YAG media” value is on record as 4 (4: <0.2 mg/L). Moreover, the “MIC grade, A. TERREUS, YAG media” value in the assay on Aspergillus terreus is listed as 4 (4: <0.2 mg/L). The “MIC grade, A. TERREUS, RPMI media” value with A. terreus is on record as 3 (3: 1-5 mg/L). Also, in the assay on A. flavus, the “MIC grade, A. FLAVUS, RPMI media” value is on record as 4 (4: <1 mg/L). Also, the “MIC grade, A. TERREUS 49, RPMI media” value against A. terreus 49 [4] is listed as 3 (3: 1-5 mg/L). Also, the “MIC grade, C. TROPICALIS, RPMI media” value with C. tropicalis was 3 (3: 1-5 mg/L). The “MIC grade, A. NIGER, RPMI media” value against A. niger is reported as 3 (3: 1-5 mg/L). Also, the “MIC grade, C. GLABRATA, RPMI media” value with C. glabrata is recorded as 3 (3: 1-5 mg/L). The “MIC grade, C. KRUSEI, RPMI media” value against C. krusei is on record as 4 (4: <1 mg/L). Also, the “MIC grade, C. ALBICANS, RPMI media” value with C. albicans was 4 (4: <1 mg/L). In addition, in the assay on C. parapsilosis, the “MIC grade, C. PARAPSILOSIS, RPMI media” value is 4 (4: <1 mg/L). In the assay with Aspergillus fumigatus, the “MIC grade, A. FUMIGATUS, YAG media” value is reported as 4 (4: <0.2 mg/L).

As to `NC1=NN=C(CCCCCOc2ccccn2)CS1`, in the assay with A. fumigatus 210 [1], the “MIC grade, A. FUMIGATUS 210, RPMI media” value was 3 (3: 1-5 mg/L). For the same compound, the “MIC grade, A. FUMIGATUS, RPMI media” value in the assay with A. fumigatus is given as 4 (4: <1 mg/L). The “MIC grade, A. FUMIGATUS 210, YAG media” value with A. fumigatus 210 [2] is reported as 4 (4: <0.2 mg/L). Moreover, the “MIC grade, A. TERREUS 49, YAG media” value against A. terreus 49 [3] is given as 4 (4: <0.2 mg/L). Besides, in the assay with Aspergillus niger, the “MIC grade, A. NIGER, YAG media” value is on record as 4 (4: <0.2 mg/L). The “MIC grade, A. FLAVUS, YAG media” value against Aspergillus flavus is reported as 4 (4: <0.2 mg/L). The “MIC grade, A. TERREUS, YAG media” value with Aspergillus terreus was 4 (4: <0.2 mg/L). Also, the “MIC grade, A. TERREUS, RPMI media” value with A. terreus was 4 (4: <1 mg/L). For the same compound, in the assay on A. flavus, the “MIC grade, A. FLAVUS, RPMI media” value was 4 (4: <1 mg/L). Moreover, in the assay with A. terreus 49 [4], the “MIC grade, A. TERREUS 49, RPMI media” value was 4 (4: <1 mg/L). Besides, in the assay with C. tropicalis, the “MIC grade, C. TROPICALIS, RPMI media” value is 4 (4: <1 mg/L). In the assay on A. niger, the “MIC grade, A. NIGER, RPMI media” value is 4 (4: <1 mg/L). The “MIC grade, C. GLABRATA, RPMI media” value against C. glabrata was 3 (3: 1-5 mg/L). In addition, the “MIC grade, C. KRUSEI, RPMI media” value against C. krusei is 4 (4: <1 mg/L). In addition, the “MIC grade, C. ALBICANS, RPMI media” value against C. albicans is 4 (4: <1 mg/L). For the same compound, the “MIC grade, C. PARAPSILOSIS, RPMI media” value against C. parapsilosis was 4 (4: <1 mg/L). For the same compound, the “MIC grade, A. FUMIGATUS, YAG media” value against Aspergillus fumigatus is 4 (4: <0.2 mg/L).

The values are drawn from patent publication US20180201592A1, “2-AMINO-1,3,4-THIADIAZINE AND 2-AMINO-1,3,4-OXADIAZINE BASED ANTIFUNGAL AGENTS” (F2G Limited, priority 2015, published 2018).
